Measured values reported in US20240294522A1 (Lead Discovery Center GmbH, priority 2021, published 2024).

Experiments:
[1] = test system: neonatal rat ventricular cardiac myocytes (NRVCMs); experiment: In vitro cardiomyocyte hypertrophy assay; assay type: cell-based, Wistar rats; settings: inhibition of cellular hypertrophy, NRVCMs stimulated with phenylephrine 20 μM and leukemia inhibitory factor 50 ng/ml, 96 h, read-out: Hypertrophy Assay (IC-50)
Procedure: 5-6 days old Wistar rats were sacrificed by decapitation and neonatal rat ventricular cardiac myocytes (NRVCMs) were prepared using the Neonatal heart dissociation kit (Miltenyi Biotec) according to the manufacturer's instructions. The cardiac single cell suspension was resuspended in DMEM low glucose medium supplemented with 2% fetal bovine serum (FBS) and 50 μg/ml penicillin/streptomycin. 1500 cells/well were seeded on 0.1% gelatin-coated 384-well plates and incubated in medium at 37° C. and 5% CO2 for 24 h prior to the addition of test compounds to the cells at titrated concentrations. Cellular hypertrophy was then stimulated by adding phenylephrine and leukemia inhibitory factor at final concentrations of 20 μM and 50 ng/ml, respectively, and the cells were incubated for another 96 h. For immunocytochemistry, cells were fixed with 4% formaldehyde on day 5 of compound treatment and cardiomyocytes were stained with antibodies against a-actinin while cell nuclei were stained with DAPI. Image acquisition and phenotypic analysis was performed using an Image-Xpress Micro XL automated microscope (Molecular Devices).
Inhibition of cellular hypertrophy is indicated as IC50 [nM]. Compounds having an activity designated as “A” provided an IC50≤500 nM; compounds having an activity designated as “B” provided an 500 nM<IC50≤1000 nM; compounds having an activity designated as “C” provided an IC50>1000 nM.

[2] = biological target: T1, GRK5 (Homo sapiens, UniProt P34947); experiment: Lance Kinase Activity Assay, GRK5; settings: biochemical Lance kinase activity assay; class symbols A-F; read-out: GRK5 LANCE Assay (IC-50)
T1 construct: purchased Thermo Scientific
T1 sequence (P34947 whole entry): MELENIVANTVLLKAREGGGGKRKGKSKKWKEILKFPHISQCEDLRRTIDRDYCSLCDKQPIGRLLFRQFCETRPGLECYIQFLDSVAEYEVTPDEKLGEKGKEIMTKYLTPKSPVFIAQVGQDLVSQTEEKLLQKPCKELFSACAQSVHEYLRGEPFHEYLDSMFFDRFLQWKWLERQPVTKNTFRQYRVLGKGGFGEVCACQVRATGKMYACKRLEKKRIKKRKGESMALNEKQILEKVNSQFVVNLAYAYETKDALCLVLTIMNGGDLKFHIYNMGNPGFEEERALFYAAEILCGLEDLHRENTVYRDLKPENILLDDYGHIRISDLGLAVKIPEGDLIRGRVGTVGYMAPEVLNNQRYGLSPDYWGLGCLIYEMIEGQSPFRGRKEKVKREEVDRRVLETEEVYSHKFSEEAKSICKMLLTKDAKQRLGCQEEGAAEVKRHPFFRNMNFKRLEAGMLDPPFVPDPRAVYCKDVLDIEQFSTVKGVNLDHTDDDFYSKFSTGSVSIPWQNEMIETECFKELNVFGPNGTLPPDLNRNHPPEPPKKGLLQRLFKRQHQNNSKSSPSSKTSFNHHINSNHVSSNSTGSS
Outline: (§1)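 IC50s from sigmoidal dose-response over 0.0025-10 μM compound, with phosphorylated ULight substrate detected by Eu anti-phospho antibody FRET after EDTA quench.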

[3] = biological target: T2, GRK2 (Homo sapiens, UniProt P25098); experiment: Lance Kinase Activity Assay, GRK2; settings: biochemical Lance kinase activity assay; class symbols A-F; read-out: GRK2 LANCE Assay (IC-50)
T2 construct: purchased Thermo Scientific
T2 sequence (P25098 1-689): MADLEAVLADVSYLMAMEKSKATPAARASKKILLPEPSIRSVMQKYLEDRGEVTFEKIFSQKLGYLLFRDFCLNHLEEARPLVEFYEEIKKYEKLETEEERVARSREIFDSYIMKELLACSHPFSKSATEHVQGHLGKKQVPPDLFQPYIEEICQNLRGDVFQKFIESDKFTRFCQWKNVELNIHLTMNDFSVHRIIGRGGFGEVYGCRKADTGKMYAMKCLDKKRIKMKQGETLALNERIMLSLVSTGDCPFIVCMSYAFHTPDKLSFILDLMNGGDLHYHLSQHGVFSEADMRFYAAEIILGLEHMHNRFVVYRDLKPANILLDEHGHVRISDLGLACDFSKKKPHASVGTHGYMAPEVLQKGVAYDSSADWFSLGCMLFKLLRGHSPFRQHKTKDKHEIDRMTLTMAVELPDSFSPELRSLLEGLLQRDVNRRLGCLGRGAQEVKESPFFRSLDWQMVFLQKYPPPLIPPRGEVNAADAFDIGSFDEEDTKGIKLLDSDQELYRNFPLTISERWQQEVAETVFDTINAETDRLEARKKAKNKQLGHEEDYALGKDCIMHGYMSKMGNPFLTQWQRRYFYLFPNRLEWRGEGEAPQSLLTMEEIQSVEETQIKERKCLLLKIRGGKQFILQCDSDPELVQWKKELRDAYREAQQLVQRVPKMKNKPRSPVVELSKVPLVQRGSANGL
Outline: as §1

| SMILES | IC50 [2] [nM] | IC50 [3] [nM] | IC50 [1] [nM] |
| --- | --- | --- | --- |
| COc1ccc([C@@H](C)NC(=O)/C(C#N)=C/c2c[nH]c3ncc(OCCN(C)C)cc23)cc1OC [Example 104, (R,E)-2-cyano-N-(1-(3,4-dimethoxyphenyl)ethyl)-3-(5-(2-(dimethylamino)ethoxy)-1H-pyrrolo[2,3-b]pyridin-3-yl)acrylamide] | ≤ 50 | 1000 to 10000 | > 1000 |
| COc1ccc([C@@H](CO)NC(=O)/C(C#N)=C/c2c[nH]c3ncc(-c4cnn(C)c4)cc23)cc1OC [Example 92, (S,E)-2-cyano-N-(1-(3,4-dimethoxyphenyl)-2-hydroxyethyl)-3-(5-(1-methyl-1H-pyrazol-4-yl)-1H-pyrrolo[2,3-b]pyridin-3-yl)acrylamide] | ≤ 50 | 1000 to 10000 | > 1000 |
| COc1ccc([C@@H](C)NC(=O)/C(C#N)=C/c2c[nH]c3ncc(-c4ccc(CN(C)C)cc4)cc23)cc1OC [Example 117, (R,E)-2-cyano-N-(1-(3,4-dimethoxyphenyl)ethyl)-3-(5-(4-((dimethylamino)methyl)phenyl)-1H-pyrrolo[2,3-b]pyridin-3-yl)acrylamide] | ≤ 50 | 1000 to 10000 | 500 to 1000 |
| COc1ccc([C@@H](C)NC(=O)/C(C#N)=C/c2c[nH]c3ncc(-c4ccc(F)c(S(C)(=O)=O)c4)cc23)cc1OC [Example 169] | ≤ 50 | 1000 to 10000 | 500 to 1000 |
| C[C@@H](NC(=O)/C(C#N)=C/c1c[nH]c2ncc(-c3cnn(C)c3)cc12)c1ccc2c(c1)OCO2 [Example 252, (R,E)-N-(1-(benzo[d][1,3]dioxol-5-yl)ethyl)-2-cyano-3-(5-(1-methyl-1H-pyrazol-4-yl)-1H-pyrrolo[2,3-b]pyridin-3-yl)acrylamide] | ≤ 50 | 500 to 1000 | ≤ 500 |
| COc1ccc([C@@H](C)NC(=O)/C=C/c2c[nH]c3ncc(-c4cnn(CCN(C)C)c4)cc23)cc1OC [Example 213, (R,E)-N-(1-(3,4-dimethoxyphenyl)ethyl)-3-(5-(1-(2-(dimethylamino)ethyl)-1H-pyrazol-4-yl)-1H-pyrrolo[2,3-b]pyridin-3-yl)acrylamide] | ≤ 50 | 1000 to 10000 | > 1000 |

Second part, led by results:

| IC50 [2] [nM] | IC50 [3] [nM] | SMILES | IC50 [1] [nM] |
| --- | --- | --- | --- |
| ≤ 50 | 1000 to 10000 | COc1ccc([C@@H](C)NC(=O)/C=C/c2c[nH]c3ncc(-c4ccc(S(C)(=O)=O)cc4)cc23)cc1OC [Example 219, (R,E)-N-(1-(3,4-dimethoxyphenyl)ethyl)-3-(5-(4-(methylsulfonyl)phenyl)-1H-pyrrolo[2,3-b]pyridin-3-yl)acrylamide] | > 1000 |
| ≤ 50 | 500 to 1000 | COc1ccc([C@@H](C)NC(=O)/C=C/c2c[nH]c3ncc(-c4ccc(N5CCN(C)CC5)cc4)cc23)cc1OC [Example 113, (R,E)-N-(1-(3,4-dimethoxyphenyl)ethyl)-3-(5-(4-(4-methylpiperazin-1-yl)phenyl)-1H-pyrrolo[2,3-b]pyridin-3-yl)acrylamide] | ≤ 500 |
| ≤ 50 | 1000 to 10000 | COc1ccc([C@@H](C)NC(=O)/C(C#N)=C/c2c[nH]c3ncc(-c4cnn(C5CCNCC5)c4)cc23)cc1OC [Example 89, (R,E)-2-cyano-N-(1-(3,4-dimethoxyphenyl)ethyl)-3-(5-(1-(piperidin-4-yl)-1H-pyrazol-4-yl)-1H-pyrrolo[2,3-b]pyridin-3-yl)acrylamide] | > 1000 |
| ≤ 50 | 50 to 100 | COc1cc([C@@H](C)NC(=O)/C(C#N)=C/c2c[nH]c3ncc(-c4cnn(C)c4)cc23)ccc1F [Example 94, (R,E)-2-cyano-N-(1-(4-fluoro-3-methoxyphenyl)ethyl)-3-(5-(1-methyl-1H-pyrazol-4-yl)-1H-pyrrolo[2,3-b]pyridin-3-yl)acrylamide] | ≤ 500 |
| ≤ 50 | > 10000 | COc1ccc([C@@H](C)NC(=O)/C=C/c2c[nH]c3ncc(-c4cccc(SC)c4)cc23)cc1OC [Example 254, (R,E)-N-(1-(3,4-dimethoxyphenyl)ethyl)-3-(5-(3-(methylthio)phenyl)-1H-pyrrolo[2,3-b]pyridin-3-yl)acrylamide] | > 1000 |
| ≤ 50 | 1000 to 10000 | COc1ccc([C@@H](C)NC(=O)/C=C/c2c[nH]c3ncc(-c4cnn5ccccc45)cc23)cc1OC [Example 205, (R,E)-N-(1-(3,4-dimethoxyphenyl)ethyl)-3-(5-(pyrazolo[1,5-a]pyridin-3-yl)-1H-pyrrolo[2,3-b]pyridin-3-yl)acrylamide] | 500 to 1000 |
